Assays:
YKL-5-124 = compound: C=CC(=O)Nc1ccc(C(=O)Nc2[nH]nc3c2CN(C(=O)N[C@H](CN(C)C)c2ccccc2)C3(C)C)cc1 [YKL-5-124]; assay: GR value, 72 h; higher = faster growth (1 = untreated, <0 = killing);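 further: breast cancer and non-malignant breast epithelial lines, nine half-log doses, viable cells counted by Hoechst and LIVE/DEAD dye imaging versus time-zero plates and DMSO controls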
[1] = compound: CCc1cnn2c(NCc3ccc[n+]([O-])c3)cc(N3CCCC[C@H]3CCO)nc12; assay: as above
LEE011/Ribociclib = compound: CN(C)C(=O)c1cc2cnc(Nc3ccc(N4CCNCC4)cn3)nc2n1C1CCCC1 [LEE011/Ribociclib]; assay: as above
BSJ-03-123 = compound: CC(=O)c1c(C)c2cnc(Nc3ccc(N4CCN(CCOCCOCCOCCNC(=O)COc5cccc6c5C(=O)N(C5CCC(=O)NC5=O)C6=O)CC4)cn3)nc2n(C2CCCC2)c1=O [BSJ-03-123]; assay: as above
THZ1 = compound: CN(C)C/C=C/C(=O)Nc1ccc(C(=O)Nc2cccc(Nc3ncc(Cl)c(-c4c[nH]c5ccccc45)n3)c2)cc1 [THZ1]; assay: as above
[2] = compound: CCN1CCN(Cc2ccc(Nc3ncc(F)c(-c4cc(F)c5nc(C)n(C(C)C)c5c4)n3)nc2)CC1; assay: as above
THZ531 [3] = compound: T1, CN(C)C/C=C/C(=O)Nc1ccc(C(=O)N2CCC[C@@H](Nc3ncc(Cl)c(-c4c[nH]c5ccccc45)n3)C2)cc1 [THZ531]; assay: as above
[4] = compound: CC(=O)c1c(C)c2cnc(Nc3ccc(N4CCNCC4)cn3)nc2n(C2CCCC2)c1=O; assay: as above
Rucaparib = compound: CNCc1ccc(-c2[nH]c3cc(F)cc4c3c2CCNC4=O)cc1 [Rucaparib]
BSJ-01-175 = compound: CN(C)C/C=C/C(=O)Nc1ccc(O[C@@H]2CCC[C@@H](Nc3ncc(Cl)c(-c4c[nH]c5ccccc45)n3)C2)cc1 [BSJ-01-175]
Tivantinib/ARQ197 = compound: O=C1NC(=O)[C@@H](c2cn3c4c(cccc24)CCC3)[C@@H]1c1c[nH]c2ccccc12 [Tivantinib/ARQ197]
Pictilisib/GDC0941 = compound: CS(=O)(=O)N1CCN(Cc2cc3nc(-c4cccc5[nH]ncc45)nc(N4CCOCC4)c3s2)CC1 [Pictilisib/GDC0941]
Cediranib/AZD2171 = compound: COc1cc2c(Oc3ccc4[nH]c(C)cc4c3F)ncnc2cc1OCCCN1CCCC1 [Cediranib/AZD2171]
senexin b = compound: CN1CCN(C(=O)c2ccc3cc(CCNc4ncnc5ccc(C#N)cc45)ccc3c2)CC1 [senexin b]
Ceritinib/LDK378 = compound: Cc1cc(Nc2ncc(Cl)c(Nc3ccccc3S(=O)(=O)C(C)C)n2)c(OC(C)C)cc1C1CCNCC1 [Ceritinib/LDK378]
AZD6738 = compound: C[C@@H]1COCCN1c1cc(C2([S@](C)(=N)=O)CC2)nc(-c2cc[nH]c3nccc2-3)n1 [AZD6738]
Paclitaxel = compound: CC(=O)O[C@H]1C(=O)[C@@]2(C)[C@H]([C@H](OC(=O)c3ccccc3)[C@]3(O)C[C@H](OC(=O)[C@H](O)[C@@H](NC(=O)c4ccccc4)c4ccccc4)C(C)=C1C3(C)C)[C@]1(OC(C)=O)CO[C@@H]1C[C@@H]2O [Paclitaxel]
THZ531 [5] = compound: T1, THZ531
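Wherever GR50, 72 h is given: breast cancer and non-malignant breast epithelial cell lines, Deep Dye Drop or Dye Drop imaging, nine half-log doses, GR normalized to time-zero plates and DMSO-only controls.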

BT20
GR value (YKL-5-124; 0.001 µM): 0.835 GR | GR value (YKL-5-124; 0.003162 µM): 0.664 GR | GR value (YKL-5-124; 0.01 µM): 0.432 GR | GR value (YKL-5-124; 0.03162 µM): 0.395 GR | GR value (YKL-5-124; 0.1 µM): 0.219 GR | GR value (YKL-5-124; 0.3162 µM): 0.229 GR | GR value (YKL-5-124; 1 µM): 0.13 GR | GR value (YKL-5-124; 3.162 µM): 0.0428 GR | GR value (YKL-5-124; 10 µM): -0.116 GR | GR value ([1]; 0.0001 µM): 0.951 GR | GR value ([1]; 0.0003162 µM): 1.01 GR | GR value ([1]; 0.001 µM): 0.998 GR | GR value ([1]; 0.003162 µM): 1.1 GR | GR value ([1]; 0.01 µM): 0.929 GR | GR value ([1]; 0.03162 µM): -0.235 GR | GR value ([1]; 0.1 µM): -0.645 GR | GR value ([1]; 0.3162 µM): -0.672 GR | GR value ([1]; 1 µM): -0.698 GR | GR value (LEE011/Ribociclib; 0.001 µM): 0.818 GR | GR value (LEE011/Ribociclib; 0.003162 µM): 0.759 GR | GR value (LEE011/Ribociclib; 0.01 µM): 0.624 GR | GR value (LEE011/Ribociclib; 0.03162 µM): 0.672 GR | GR value (LEE011/Ribociclib; 0.1 µM): 0.651 GR | GR value (LEE011/Ribociclib; 0.3162 µM): 0.49 GR | GR value (LEE011/Ribociclib; 1 µM): 0.463 GR | GR value (LEE011/Ribociclib; 3.162 µM): 0.384 GR | GR value (LEE011/Ribociclib; 10 µM): 0.0703 GR | GR value (BSJ-03-123; 0.001 µM): 0.934 GR | GR value (BSJ-03-123; 0.003162 µM): 0.738 GR | GR value (BSJ-03-123; 0.01 µM): 0.759 GR | GR value (BSJ-03-123; 0.03162 µM): 0.7 GR | GR value (BSJ-03-123; 0.1 µM): 0.664 GR | GR value (BSJ-03-123; 0.3162 µM): 0.528 GR | GR value (BSJ-03-123; 1 µM): 0.445 GR | GR value (BSJ-03-123; 3.162 µM): 0.365 GR | GR value (BSJ-03-123; 10 µM): 0.0085 GR | GR value (THZ1; 0.0001 µM): 0.946 GR | GR value (THZ1; 0.0003162 µM): 1.04 GR | GR value (THZ1; 0.001 µM): 1 GR | GR value (THZ1; 0.003162 µM): 1.02 GR | GR value (THZ1; 0.01 µM): 1.03 GR | GR value (THZ1; 0.03162 µM): 1.01 GR | GR value (THZ1; 0.1 µM): 1.01 GR | GR value (THZ1; 0.3162 µM): 0.807 GR | GR value (THZ1; 1 µM): -0.409 GR | GR value ([2]; 0.001 µM): 0.933 GR | GR value ([2]; 0.003162 µM): 0.9 GR | GR value ([2]; 0.01 µM): 0.69 GR | GR value ([2]; 0.03162 µM): 0.489 GR | GR value ([2]; 0.1 µM): 0.331 GR | GR value ([2]; 0.3162 µM): 0.264 GR | GR value ([2]; 1 µM): 0.231 GR | GR value ([2]; 3.162 µM): 0.163 GR | GR value ([2]; 10 µM): -0.21 GR | GR value (THZ531 [3]; 0.0001 µM): 1 GR | GR value (THZ531 [3]; 0.0003162 µM): 0.93 GR | GR value (THZ531 [3]; 0.001 µM): 0.967 GR | GR value (THZ531 [3]; 0.003162 µM): 0.988 GR | GR value (THZ531 [3]; 0.01 µM): 1.09 GR | GR value (THZ531 [3]; 0.03162 µM): 1 GR | GR value (THZ531 [3]; 0.1 µM): 0.927 GR | GR value (THZ531 [3]; 0.3162 µM): 0.907 GR | GR value (THZ531 [3]; 1 µM): 0.647 GR | GR value ([4]; 0.0003162 µM): 1.07 GR | GR value ([4]; 0.001 µM): 1.09 GR | GR value ([4]; 0.003162 µM): 0.956 GR | GR value ([4]; 0.01 µM): 0.809 GR | GR value ([4]; 0.03162 µM): 0.567 GR | GR value ([4]; 0.1 µM): 0.36 GR | GR value ([4]; 0.3162 µM): 0.24 GR | GR value ([4]; 1 µM): 0.203 GR | GR value ([4]; 3.162 µM): 0.156 GR | GR50, 72 h (Rucaparib): > 10 µM | GR50, 72 h (BSJ-01-175): 0.0388 µM | GR50, 72 h (Tivantinib/ARQ197): 0.473 µM | GR50, 72 h (Pictilisib/GDC0941): 0.904 µM | GR50, 72 h (Cediranib/AZD2171): 5.69 µM | GR50, 72 h (senexin b): 2.3 µM | GR50, 72 h (Ceritinib/LDK378): 1.53 µM | GR50, 72 h (AZD6738): 5.85 µM | GR50, 72 h (Paclitaxel): 0.00202 µM | GR50, 72 h (THZ531 [5]): > 1 µM
